The values that follow come from US20230398161A1 (priority 2020, published 2023).

The subject of assay [1] is Escherichia coli (E. coli) strain ATCC 700928. In words: Urinary tract infection model in C3H/OuJ mice, CK570: E. coli burden (CFU) in tissues. The conditions noted are these: positive control, IV, all timepoints assessed.
Experimental: The vehicle used in this study was 1×TBS.
C3H/OuJ female mice, aged approximately 8 weeks and weighing 21 to 24 grams, were used in this study. Mice were housed with 1 to 5 animals per cage and were provided food (5P76 Prolab isopro irradiated lab diet) and water ad libitum.
Mice were anesthetized with 1-4% isoflurane in oxygen for 2-3 minutes until a deep plane of anesthesia was achieved, confirmed by toe pinch reflex. Each mouse was then placed on a board, ventral side up, with the nose inserted into a nose cone supplying isoflurane. The lower abdomen was gently massaged to expel any urine in the bladder. […] For IV administration, mice were manually restrained in a restrainer device, and study treatment was administered via the lateral tail vein. A dose volume of 100 μL was used for IV injections. For IU administration, the same method was used as for the original administration of E. coli. A dose volume of 50 μL was used for IU administration.
All CFU data were log-transformed.
Assay [2] deals with 300-strain clinical isolate panel with an additional 4 strains. As to the kind of experiment: Host range of CK618 and antibiotics alone and in combination, 304-isolate panel. The format is cell-based, E. coli. The conditions noted are these: antibiotic at concentration printed after name plus CK618. How it is done:
(§1) The first assay used a panel of 88 contemporaneous urinary tract infection (UTI) isolates from North America, Europe, Latin America, and Asia. […] The second assay used a panel made up of a 300-strain clinical isolate panel (Table 14) with an additional 4 strains of interest. […] Four of the same SOC antibiotics tested against the 88-isolate panel were tested against this panel. The non-SOC antibiotics were not included due to their limited use in clinical settings, and nitrofurantoin was not included due to the low probability of resistance to this drug.
(§2) For both isolate panels, antibiotic concentrations tested were determined by using Clinical and Laboratory Standards Institute (CLSI) or European Committee on Antimicrobial Susceptibility Testing (EUCAST) breakpoints at concentrations that kill susceptible isolates but allow intermediate or resistant isolates to grow in the standard AST microdilution assay (Table 17).
(§3) The cocktail was then mixed with bacteria to obtain final titers of 1×10^6 plaque-forming unit (PFU)/mL/phage for the cocktail and 1×10^5 colony-forming unit (CFU)/mL for the bacteria, resulting in a multiplicity of infection (MOI) of 10 for each phage in a sample. […] Reactions were incubated at 37° C. with shaking and OD measurements were taken each hour for 20 hours.

Assay [3] relates to 88 contemporaneous urinary tract infection (UTI) isolates. The format is cell-based, E. coli. The conditions noted are these: both isolate panels, Tables 18, 19. How it is done:
as §1, §2, §3

On to `O=C(O)c1cn(C2CC2)c2cc(N3CCNCC3)c(F)cc2c1=O` [Ciprofloxacin], for which the “bacterial burden in each tissue” value in assay [1] is recorded as “significantly reduced bacterial burden to the LOD”.

For the compound `C[C@@H]1O[C@@H]1P(=O)(O)O` [Fosfomycin], the “Host range % on all strains (n = 304), Combination: Antibiotic + LBP-CK618” value in assay [2] was determined as 97.0%. Moreover, in assay [3], the “host range on MDR and beta-lactam-resistant strains compared with all strains (in words)” value is “performed similarly regardless of antibiotic resistance status”; the “host range performance on all strains (in words)” value is “strong activity across all strains”. Regarding Trimethoprim/Sulfamethoxazole [TMP/SXT], the “Host range % on all strains (n = 304), Combination: Antibiotic + LBP-CK618” value in assay [2] came to 81.9%.
